Earlier results on one molecule are cited in patent US7875460B2, “Method for determining the effectiveness of stabilized chlorine dioxide in a mouth rinse” (priority 2007, dated 2011).

The subject of data set [1] is bacteria. The settings on record: exposures as short as 10 seconds.
For data set [2] the following is noted: in vivo.
Data set [3] has as its system Sprague-Dawley rats.

Regarding `[O][Cl+][O-]` [chlorine dioxide], the reduction in bacteria result in data set [1] was “dramatic reduction in bacteria”. Also, in data set [2], the “decrease in VSCs in expired mouth air” value is reported as “remarkable decrease in VSCs”. Moreover, the “effects on haematology, blood biochemistry, or organ weights” value in data set [3] (0, 2, 4, 6, 12 mg/kg/day (male) and 0, 2, 5, 8, 15 mg/kg/day (female) in drinking-water for 90 days) is “no toxicologically significant effects”. The “target tissue identified: nasal cavity findings” value in data set [3] (drinking-water for 90 days) is “increased incidence of goblet cell hyperplasia, squamous metaplasia, and inflammatory responses”. Further, the deaths result in data set [3] (exposures as high as 11.5 mg/kg/day (male) and 14.9 mg/kg/day (female)) is reported as “no deaths were reported”.
